According to ChEMBL document CHEMBL5257125, “Discovery of pyrido[4,3-d]pyrimidinone derivatives as novel Wee1 inhibitors” (Bioorg Med Chem, 2023):

Tests used:
MV4-11 = assay: Antiproliferative activity against human MV4-11 cells incubated for 72 hrs by Celltiter-glo assay; type: functional, cell-based; conditions: MV4-11, 72 h
T47D = assay: Antiproliferative activity against human T47D cells incubated for 72 hrs by Celltiter-glo assay; type: functional, cell-based
Wee1-like protein kinase = Wee1-like protein kinase (Homo sapiens, UniProt P30291); assay: Inhibition of recombinant human Wee1 (214 to end residues) incubated for 1 hr in presence of tracer 178 by fluorescence based assay
[1] = Metabolic stability in mouse liver microsomes assessed as parent compound remaining preincubated with NADPH for 5 mins followed by compound addition and measured upto 90 mins by LC-MS/MS analysis; type: ADME, Microsome; conditions: read-out: Stability

Chain of Wee1-like protein kinase (P30291 whole entry): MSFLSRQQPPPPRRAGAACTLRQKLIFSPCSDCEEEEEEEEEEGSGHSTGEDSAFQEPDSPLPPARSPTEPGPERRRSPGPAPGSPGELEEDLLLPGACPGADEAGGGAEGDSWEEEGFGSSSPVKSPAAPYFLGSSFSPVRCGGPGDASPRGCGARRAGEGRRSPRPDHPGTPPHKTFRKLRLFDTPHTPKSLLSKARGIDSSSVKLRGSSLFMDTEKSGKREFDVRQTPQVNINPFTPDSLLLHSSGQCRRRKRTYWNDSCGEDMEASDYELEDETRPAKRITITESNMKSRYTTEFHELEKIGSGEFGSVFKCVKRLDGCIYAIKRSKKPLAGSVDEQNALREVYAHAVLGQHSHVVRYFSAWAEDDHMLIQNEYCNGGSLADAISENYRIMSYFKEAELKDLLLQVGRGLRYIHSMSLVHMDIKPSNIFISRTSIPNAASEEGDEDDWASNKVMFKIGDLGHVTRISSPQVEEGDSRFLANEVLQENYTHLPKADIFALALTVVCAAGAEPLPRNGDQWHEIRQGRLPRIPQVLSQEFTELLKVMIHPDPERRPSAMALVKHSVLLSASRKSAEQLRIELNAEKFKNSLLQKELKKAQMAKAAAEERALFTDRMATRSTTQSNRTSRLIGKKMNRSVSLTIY

| IC50 (MV4-11) | IC50 (T47D) | IC50 (Wee1-like protein kinase) | remaining at 1.5 h [1] | SMILES |
| --- | --- | --- | --- | --- |
| 1010 nM | 5.03 µM | 40 nM |  | N[C@H]1CCN(c2ccc(Nc3cc4ncn(-c5c(Cl)cccc5Cl)c(=O)c4cn3)cc2)C1 |
|  |  | 73 nM |  | CN(C)C1CCN(c2ccc(Nc3cc4ncn(-c5c(Cl)cccc5Cl)c(=O)c4cn3)cc2)CC1 |
| 2690 nM | 18.8 µM | 65 nM |  | NC1CCN(c2ccc(Nc3cc4ncn(-c5c(Cl)cccc5Cl)c(=O)c4cn3)cc2)CC1 |
| 1330 nM | 14.4 µM | 47 nM |  | CN1CCN(c2ccc(Nc3cc4ncn(-c5c(Cl)cccc5Cl)c(=O)c4cn3)cc2)CC1 |
|  |  | 294 nM |  | CC(=O)N1CCN(c2ccc(Nc3cc4ncn(-c5c(Cl)cccc5Cl)c(=O)c4cn3)cc2)CC1 |
|  |  | 58 nM |  | N[C@@H]1CCN(c2ccc(Nc3cc4ncn(-c5c(Cl)cccc5Cl)c(=O)c4cn3)cc2)C1 |
|  |  | 85 nM |  | CCN1CCN(c2ccc(Nc3cc4ncn(-c5c(Cl)cccc5Cl)c(=O)c4cn3)cc2)CC1 |
|  |  | 38 nM |  | CC(C)N1CCN(c2ccc(Nc3cc4ncn(-c5c(Cl)cccc5Cl)c(=O)c4cn3)cc2)CC1 |
| 1070 nM | 6.39 µM | 18 nM |  | CN1CCN(c2ccc(Nc3cc4ncn(-c5c(Cl)cccc5Cl)c(=O)c4cn3)nc2)CC1 |
| 1160 nM | 2.67 µM | 23 nM |  | C[C@@H]1CN(c2ccc(Nc3cc4ncn(-c5c(Cl)cccc5Cl)c(=O)c4cn3)nc2)C[C@H](C)N1 |

Continued, molecule first:

| SMILES | IC50 (MV4-11) | IC50 (T47D) | IC50 (Wee1-like protein kinase) | remaining at 1.5 h [1] |
| --- | --- | --- | --- | --- |
| C[C@@H]1CN(c2ccc(Nc3cc4ncn(-c5c(Cl)cccc5Cl)c(=O)c4cn3)cc2)C[C@H](C)N1 | 2680 nM | 4.13 µM | 19 nM |  |
| O=c1c2cnc(Nc3ccc(N[C@@H]4CN5CCC4CC5)cc3)cc2ncn1-c1c(Cl)cccc1Cl |  |  | 201 nM |  |
| CN(C)CCCN(C)c1ccc(Nc2cc3ncn(-c4c(Cl)cccc4Cl)c(=O)c3cn2)cc1 |  |  | 142 nM |  |
| N[C@H]1CCCN(c2ccc(Nc3cc4ncn(-c5c(Cl)cccc5Cl)c(=O)c4cn3)cc2)C1 | 1460 nM | 4.68 µM | 41 nM |  |
| C=CCn1c(=O)c2cnc(Nc3ccc(N4CCN(C)CC4)cc3)nc2n1-c1cccc(C(C)(C)O)n1 [ADAVOSERTIB] | 95 nM | 12.8 µM |  |  |
| CN(CCCN)c1ccc(Nc2cc3ncn(-c4c(Cl)cccc4Cl)c(=O)c3cn2)cc1 |  |  | 90 nM |  |
| CN(C)CCCNc1ccc(Nc2cc3ncn(-c4c(Cl)cccc4Cl)c(=O)c3cn2)cc1 | 874 nM | 14 µM | 79 nM | 22% |
| O=c1c2cnc(Nc3ccc(C4CCNCC4)cc3)cc2ncn1-c1c(Cl)cccc1Cl |  |  | 78 nM |  |
| CN1CCN(c2ccc(Nc3cc4ncn(-c5ccccc5F)c(=O)c4cn3)cc2)CC1 |  |  | 1480 nM |  |
| C[C@@H]1CN(c2ccc(Nc3cc4ncn(-c5c(Cl)cccc5Cl)c(=O)c4cn3)cc2CO)C[C@H](C)N1 | 791 nM | 3.23 µM | 23 nM | > 50% |
